Activity calls are given as the source filed them. How the calls were made is not given here.

For this data set, the system named is CCRIS mutagenicity, Ames/micronucleus/aberration tests. Put plainly: CCRIS mutagenicity studies.
Where [1] appears, read: Test System: AMES SALMONELLA TYPHIMURIUM, Strain/Indicator: TA100, Metabolic Activation: NONE, Method: STANDARD PLATE.
Where [2] appears, read: Test System: AMES SALMONELLA TYPHIMURIUM, Strain/Indicator: TA1535, Metabolic Activation: NONE, Method: STANDARD PLATE.
The mark [3] stands for this setting: Test System: AMES SALMONELLA TYPHIMURIUM, Strain/Indicator: TA98, Metabolic Activation: NONE, Method: PREINCUBATION
[4] abbreviates: Test System: AMES SALMONELLA TYPHIMURIUM, Strain/Indicator: TA100, Metabolic Activation: NONE, Method: PREINCUBATION

For `C=C(C)C1CCC2(C)OC2C1` (stereo not drawn), the mutagenic call runs as follows: under setting [1], “inactive; negative”; (Test System: AMES SALMONELLA TYPHIMURIUM, Strain/Indicator: TA100, Metabolic Activation: RAT, LIVER, S-9, AROCLOR 1254, Method: STANDARD PLATE) “inactive; negative”; under setting [2], “inactive; negative”; (Test System: AMES SALMONELLA TYPHIMURIUM, Strain/Indicator: TA1535, Metabolic Activation: RAT, LIVER, S-9, AROCLOR 1254, Method: STANDARD PLATE) “inactive; negative”; (Test System: UDS RAT HEPATOCYTES, Strain/Indicator: THY INCORP, Metabolic Activation: NONE) “inactive; negative”.
As to `Nc1cc2c3c(ccc2c2ccccc12)[C@H](O)[C@@H](O)C=C3`, the mutagenic call under setting [3] was “inactive; negative”; the mutagenic call (Test System: AMES SALMONELLA TYPHIMURIUM, Strain/Indicator: TA98, Metabolic Activation: RAT, LIVER, S-9, AROCLOR 1254, Method: PREINCUBATION) is “inactive; negative”; the mutagenic call under setting [4] is “active; positive”; the mutagenic call (Test System: AMES SALMONELLA TYPHIMURIUM, Strain/Indicator: TA100, Metabolic Activation: RAT, LIVER, S-9, AROCLOR 1254, Method: PREINCUBATION) was “active; positive”; the mutagenic call (Test System: CHINESE HAMSTER OVARY, Strain/Indicator: CHO-K1-BH4 (HGPRT)/6-THIOGUANINE, Metabolic Activation: NONE, Method: STANDARD PLATE) is “inactive; negative”; the mutagenic call (Test System: CHINESE HAMSTER OVARY, Strain/Indicator: CHO-K1-BH4 (HGPRT)/6-THIOGUANINE, Metabolic Activation: RAT, LIVER, S-9, AROCLOR 1254, Method: STANDARD PLATE) is “active; positive”. Besides, the mutagenic call reads like this: (Test System: CHINESE HAMSTER OVARY, Strain/Indicator: CHO-UV5 (HGPRT)/6-THIOGUANINE, Metabolic Activation: NONE, Method: STANDARD PLATE) “inactive; negative”; (Test System: CHINESE HAMSTER OVARY, Strain/Indicator: CHO-UV5 (HGPRT)/6-THIOGUANINE, Metabolic Activation: RAT, LIVER, S-9, AROCLOR 1254, Method: STANDARD PLATE) “active; positive”.
Consider `CCCCN(C[C@@H](CO)OCc1ccccc1)N=O`, for which the mutagenic call under setting [4] was “active; positive” and the mutagenic call (Test System: AMES SALMONELLA TYPHIMURIUM, Strain/Indicator: TA100, Metabolic Activation: RAT, LIVER, S-9, PCB, Method: PREINCUBATION) is “active; positive”.
As for `C=CCCl`, the mutagenic call is “active; positive (structural changes); authors report equivocal results for ploidy chang” (End Point: IN VITRO CHROMOSOMAL ABERRATIONS, Test System: CHL CELLS, Metabolic Activation: RAT, LIVER, S-9, SODIUM PHENOBARBITAL AND 5,6-BENZOFLAVONE); “active; positive” (Test System: AMES SALMONELLA TYPHIMURIUM, Strain/Indicator: TA100, Metabolic Activation: NONE, Method: DESICCATOR); “inactive; negative” (Test System: AMES SALMONELLA TYPHIMURIUM, Strain/Indicator: TA100, Metabolic Activation: NONE, Method: PREINCUBATION (20-180 MIN)); “inactive; negative” (Test System: AMES SALMONELLA TYPHIMURIUM, Strain/Indicator: TA100, Metabolic Activation: RAT, LIVER, S-9, AROCLOR 1254 (4 OR 12 MG/ML PROTEIN), Method: PREINCUBATION (20 OR 60 MIN)); “active; positive” (Test System: AMES SALMONELLA TYPHIMURIUM, Strain/Indicator: TA100, Metabolic Activation: RAT, LIVER, S-9, AROCLOR 1254 (4 OR 12 MG/ML PROTEIN), Method: PREINCUBATION (120 OR 180 MIN)); “inactive; negative” (Test System: AMES SALMONELLA TYPHIMURIUM, Strain/Indicator: TA100, Metabolic Activation: RAT, LIVER, S-9, AROCLOR 1254, SERUM ALBUMIN (4 MG/ML) (8 MG/ML PROTEIN), Method: PREINCUBATION (120 MIN)). The mutagenic call (Test System: AMES SALMONELLA TYPHIMURIUM, Strain/Indicator: TA100, Metabolic Activation: RAT, LIVER, S-9, AROCLOR 1254, Method: DESICCATOR) was “active; positive”; the mutagenic call (Test System: AMES SALMONELLA TYPHIMURIUM, Strain/Indicator: TA102, Metabolic Activation: S-9, Method: STANDARD PLATE) was “inactive; negative”; the mutagenic call (Test System: AMES SALMONELLA TYPHIMURIUM, Strain/Indicator: TA1535, Metabolic Activation: NONE, Method: DESICCATOR) was “active; positive”; the mutagenic call (Test System: AMES SALMONELLA TYPHIMURIUM, Strain/Indicator: TA1535, Metabolic Activation: NONE, Method: PREINCUBATION) is “active; positive”; the mutagenic call (Test System: AMES SALMONELLA TYPHIMURIUM, Strain/Indicator: TA1535, Metabolic Activation: RAT, LIVER, S-9, AROCLOR 1254, Method: DESICCATOR) is “active; positive”; the mutagenic call (Test System: AMES SALMONELLA TYPHIMURIUM, Strain/Indicator: TA1535, Metabolic Activation: RAT, LIVER, S-9, AROCLOR 1254, Method: PREINCUBATION) is “active; positive”. Besides, the mutagenic call by setting is: (Test System: AMES SALMONELLA TYPHIMURIUM, Strain/Indicator: TA2638, Metabolic Activation: S-9, Method: STANDARD PLATE) “inactive; negative”; (Test System: Ames Salmonella typhimurium, Strain/Indicator: TA98, Metabolic Activation: Rat, Liver, S9, Sodium phenobarbital and 5,6-benzoflavone (10%), Method: Preincubation) “inactive; negative”; (Test System: Ames Salmonella typhimurium, Strain/Indicator: TA100, Metabolic Activation: Rat, Liver, S9, Sodium phenobarbital and 5,6-benzoflavone (10%), Method: Preincubation) “inactive; negative”; (Test System: Ames Salmonella typhimurium, Strain/Indicator: TA1537, Metabolic Activation: None, Method: Preincubation) “inactive; negative”; (Test System: Ames Salmonella typhimurium, Strain/Indicator: TA1537, Metabolic Activation: Rat, Liver, S9, Sodium phenobarbital and 5,6-benzoflavone (10%), Method: Preincubation) “inactive; negative”; (Test System: Ames Salmonella typhimurium, Strain/Indicator: YG7108, Metabolic Activation: None, Method: Standard plate) “inactive; positive (negative when allyl chloride dissolved in water)”. In addition, the mutagenic call is “active; positive” (Test System: Ames Salmonella typhimurium, Strain/Indicator: YG7108, Metabolic Activation: Rat, Liver, S-9, Phenobarbital/beta-naphthoflavone, Method: Standard plate); “active; positive” (Test System: Ames Salmonella typhimurium, Strain/Indicator: YG7108pin3ERb5, Metabolic Activation: None, Method: Standard plate); “inactive; negative” (Test System: E. COLI, Strain/Indicator: WP2 (PKM101), Metabolic Activation: S-9, Method: STANDARD PLATE); “inactive; negative” (Test System: E. COLI, Strain/Indicator: WP2 UVRA (PKM101), Metabolic Activation: S-9, Method: STANDARD PLATE).
With `O=[N+]([O-])c1ccc(OC2CO2)cc1` (stereo not drawn), the mutagenic call under setting [1] was “active; positive” and the mutagenic call under setting [2] is “active; positive”.
`O=c1c2[nH]c3ccccc3c2nnn1/N=C/c1ccc([N+](=O)[O-])cc1`: the mutagenic call reads like this: (Test System: AMES SALMONELLA TYPHIMURIUM, Strain/Indicator: TA97, Metabolic Activation: NONE, Method: PREINCUBATION) “active; positive”; (Test System: AMES SALMONELLA TYPHIMURIUM, Strain/Indicator: TA97, Metabolic Activation: RAT, LIVER, S-9, AROCLOR 1254 (10%), Method: PREINCUBATION) “active; positive”; under setting [3], “active; positive”; (Test System: AMES SALMONELLA TYPHIMURIUM, Strain/Indicator: TA98, Metabolic Activation: RAT, LIVER, S-9, AROCLOR 1254 (10%), Method: PREINCUBATION) “active; positive”; under setting [4], “active; positive”; (Test System: AMES SALMONELLA TYPHIMURIUM, Strain/Indicator: TA100, Metabolic Activation: RAT, LIVER, S-9, AROCLOR 1254 (10%), Method: PREINCUBATION) “active; positive”. The mutagenic call (Test System: AMES SALMONELLA TYPHIMURIUM, Strain/Indicator: TA102, Metabolic Activation: NONE, Method: PREINCUBATION) is “inactive; negative” and the mutagenic call (Test System: AMES SALMONELLA TYPHIMURIUM, Strain/Indicator: TA102, Metabolic Activation: RAT, LIVER, S-9, AROCLOR 1254 (10%), Method: PREINCUBATION) was “inactive; negative”.
As for `COc1nsc2c(OCC3CO3)cccc12` (stereo not drawn), the mutagenic call under setting [1] is “active; positive”.
On to `COC1=CC(=O)OC(/C=C/c2ccccc2)C1` (stereo not drawn), for which the mutagenic call (Test System: L5178Y ( tk+/tk-), Metabolic Activation: Human, Liver, S-9, Method: Suspension/plate) was “inactive; negative”.
`Nc1cccc2c1Cc1ccccc1-2`: the mutagenic call is “active; positive” (Test System: AMES SALMONELLA TYPHIMURIUM, Strain/Indicator: TA98, Metabolic Activation: RAT, LIVER, S-9, AROCLOR 1254 (2 OR 4%), Method: STANDARD PLATE); “active; positive” (Test System: AMES SALMONELLA TYPHIMURIUM, Strain/Indicator: TA100, Metabolic Activation: RAT, LIVER, S-9, AROCLOR 1254 (4%), Method: STANDARD PLATE); “inactive; negative” (Test System: AMES SALMONELLA TYPHIMURIUM, Strain/Indicator: TA1535, Metabolic Activation: RAT, LIVER, S-9, AROCLOR 1254 (4%), Method: STANDARD PLATE); “active; positive” (Test System: AMES SALMONELLA TYPHIMURIUM, Strain/Indicator: TA1537, Metabolic Activation: RAT, LIVER, S-9, AROCLOR 1254 (4%), Method: STANDARD PLATE).

For the origin of these results see PubChem BioAssay AID1259407 (Chemical Carcinogenesis Research Information System (CCRIS), 2018).
